According to patent US7176035B2, “Protein-protein interactions and methods for identifying interacting proteins and the amino acid sequence at the site of interaction” (priority 1999, dated 2007):
Where no end group is shown, it is not given here.

How the values were obtained:
~41 kDa protein = test: Resynthesized high affinity hexapeptides incubated with total cell lysate; type: binding; conditions: total cell lysate from [35S]methionine labeled cells (FIG. 11); level rises with longer incubation
Experimental: Two high affinity binding sequences ^658RSSLIR^663 (SEQ ID NO: 7) and ^669SVRGSQ^674 (SEQ ID NO: 8) from HP-gp1 linker domain were resynthesized and incubated with total cell lysate from [^35S] methionine metabolically labeled cells following 24 hour or 48 hour incubation times. Bound proteins were eluted from peptide-fixed rods and resolved by 10% SDS-PAGE. The migration of the molecular weight markers is shown to the left of the figure.
For a binding assay, [^35S] methionine labeled proteins from total cell lysate were mixed with equal volume of 3–6% BSA in phosphate buffered saline (PBS) and incubated with overlapping hexapeptides covalently fixed to polypropylene rods. The peptides and total cell lysate were incubated overnight at 4° C. The rods were then removed and washed four times in PBS. The bound proteins were eluted by incubating the peptide-fixed rods in 1×SDS sample buffer for 60 minutes at room temperature with shaking. The peptides-fixed rods, were regenerated by incubation in PBS, containing 2% SDS and 1 mM β-mercaptoethanol at 65° C. in a sonicator for 30 minutes. Following the latter incubation, the rods were washed for five minutes in 65° C. ionized water and two minutes in 65° C. methanol. The peptides-fixed rods are now ready for the next round of screening. […]

[1] = system: 57 kDa protein (α- and β-tubulins); test: Binding of rod-fixed overlapping hexapeptides of P-gp linker domains to [35S]methionine-labeled total cell lysate, SDS-PAGE; conditions: for binding affinity to the 57 kDa protein in the overlapping hexapeptide scan: total cell lysate from [35S]methionine labeled CEM or CEM/VLB1.0 cells, bound proteins eluted with SDS, 10% SDS-PAGE; for binding of resynthesized hexapeptide to the 57 kDa protein: total cell lysate from [35S]methionine labeled cells, 24 hour or 48 hour incubation (FIG. 11)
Experimental: Pre-derivatized plastic rods, active ester and polypropylene trays were purchased from Cambridge Research Biochemicals (Valley Stream, N.Y.). Peptides were synthesized on solid polypropylene rods as previously described (36, 37). Briefly, the F-moc protecting group on the prederivatized polypropylene rods as solid support (arranged in a 96-well formate) was removed by incubation with 20% (v/v) piperidine in dimethylformamide (DMF) for 30 minutes with shaking. Following the deprotection of the β-alanine spacer on the polypropylene rods, Fmoc protected amino acids were dissolved in HOBt/DMF and added to the appropriate wells containing deprotected rods. Coupling of amino acids was allowed to take place for 18 hours at room temperature after which the rods were washed in DMF (1×2 minutes), methanol (4×2 minutes), and DMF (1×2 minutes). The coupling of the second amino acid required the deprotection of the F-moc amino protecting group of the first amino acid and incubation of the rods with the second preactivated F-moc-protected amino acids (pentafluorophenyl derivatives). The reaction was allowed to proceed for 18 hours, and the rods were removed and washed as indicated above. The same steps were repeated for each amino acid coupling until the sixth amino acid was coupled. Following the last coupling step, the F-moc N-terminal protecting group was removed with 20% piperidine/DMF and the free amino group acetylated for 90 minutes in an acetylation cocktail containing acetic anhydride:diisopropylethylamine (DIEA):DMF (50:1:50 v/v/v). The side chain protecting groups of the N-terminal acetylated hexapeptides onto the polypropylene rods were removed by incubation in a cleavage mixture containing trifluoroacetic acid:phenol:ethandithiol (95:2.5:2.5 v/v/v) for 4 hours at room temperature. After the cleavage step the rods were washed with dichloromethane (DCM) and neutralized in 5% (v/v) DIEA/DCM. The deprotected peptide-coupled rods were washed in DCM, methanol and vacuum dried for 18 hours.
Following metabolic labeling of proteins with [^35S] methionine, cells were washed 3 times with phosphate buffered saline (PBS) and resuspended in hypotonic buffer (10 mM KCl, 1.5 mM MgCl2, 10 mM Tris-HCl, pH 7.4) containing protease inhibitors (2 mM PMSF, 3 μg/ml Leupeptin, 4 μg/ml pepstatin A and 1 μg/ml aprotinin) and kept on ice for 30 minutes. […] The amount of protein in the above samples was determined by the method of Lowry (69).
For a binding assay, [^35S] methionine labeled proteins from total cell lysate were mixed with equal volume of 3–6% BSA in phosphate buffered saline (PBS) and incubated with overlapping hexapeptides covalently fixed to polypropylene rods. […] The peptides-fixed rods are now ready for the next round of screening. […]

Substance | binding of resynthesized hexapeptide to a ~41 kDa protein (~41 kDa protein) | binding affinity to the 57 kDa protein in the overlapping hexapeptide scan [1] | binding of resynthesized hexapeptide to the 57 kDa protein [1]
RSSLIR: N-terminal acetylated hexapeptide from the second region of HP-gp1 linker domain, covalently fixed to polypropylene rods (Ac-RSSLIR; also: attached to polypropylene rods; listed as Homo sapiens) | bound specifically | bound with the highest affinity to the 57 kDa protein | bound specifically to the 57 kDa protein
SVRGSQ: N-terminal acetylated hexapeptide from the second region of HP-gp1 linker domain, covalently fixed to polypropylene rods (Ac-SVRGSQ; also: attached to polypropylene rods; listed as Homo sapiens) | bound specifically | bound with the highest affinity to the 57 kDa protein | bound specifically to the 57 kDa protein
